Test results: patent US7663026B2, “Transformation of seaweed utilizing biolistic gene transfer to spores” (Institute of Oceanology Chinese Academy of Sciences, priority 2003, dated 2010)

What was measured:
Laminaria = assay: Sensitivity of Laminaria to antibiotics/herbicide (selectable reagents); type: in vivo; settings: qualitative ranking
Undaria = assay: Sensitivity of Undaria to antibiotics/herbicide (selectable reagents); type: in vivo; settings: qualitative ranking

`O=C(N[C@H](CO)[C@H](O)c1ccc([N+](=O)[O-])cc1)C(Cl)Cl` [chloramphenicol] was tested, and the “sensitivity of the seaweed to the antibiotic or herbicide” value (Laminaria) was “sensitive” and the “sensitivity of the seaweed to the antibiotic or herbicide” value (Undaria) was “sensitive”.
